PubChem BioAssay AID2831 (Southern Research Specialized Biocontainment Screening …, 2010)
Calls of active or inactive are those of the source.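 Rule for the calls: active = inhibition over 29.93%, a cutoff 3 SD above the screen mean, later confirmed by dose response; inconclusive = over the cutoff but never tested in dose response; inactive = the rest.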

Columns and labels:
[1] = system: S. Typhimurium PhoP-regulated promoter-GFP reporter, fluorescence, 4 h; assay: PhoP promoter GFP reporter reduction in Typhimurium – purified and synthesized compounds, set 2, PhoP regulon inhibitor project, dose response (AID 2831)
[2] = as above; settings: S. Typhimurium PhoP-regulated promoter-GFP reporter, fluorescence, 4 h; at 150 µM (top of the series)

## S=C(NCc1ccccc1Cl)Nc1ccncc1
[1]
  IC50: 146 µM

## C1=C(CCNc2ncnc3c2[nH]c2ccccc23)CCCC1
[1]
  IC50: < 0.15 µM

## Fc1ccccc1NC(=S)NCc1ccc(Cl)cc1
[2]
  inhibition: -10.3% (inactive)

## COc1ccc(NC(=O)c2cc(Br)c(Br)s2)cn1
[1]
  IC50: < 0.15 µM

## CCOc1ccc(NC(=S)N2CCN(c3cc4c(cc3F)c(=O)c(C(=O)O)cn4CC)CC2)cc1
[1]
  IC50: 2.03 µM

## O=C(NCc1ccccc1)N1CCCN(Cc2ccccc2F)C1
[2]
  inhibition: -78.3% (inactive)

## Cc1cccc(NC(=S)NCc2ccc(Cl)cc2)c1
[2]
  inhibition: 18.9% (inactive)

## N#C/C(=C\c1ccc[nH]1)C(=O)NC1CC1
[1]
  IC50: < 0.15 µM

## CCn1cc(C(=O)O)c(=O)c2cc(F)c(N3CCN(C(=S)NC(=O)c4ccccc4F)CC3)cc21
[1]
  IC50: 106 µM

## O=C(Nc1ccccc1Cl)N1CCCN(Cc2ccccc2F)C1
[2]
  inhibition: -64.3% (inactive)

## O=C1C2=C(Nc3ccccc3SC2c2ccccc2Br)c2ccccc21 (stereo unspecified)
[1]
  IC50: 88.3 µM

## CN1CCc2nc(SCC(=O)Nc3cccc(F)c3)c(C#N)c(-c3cccs3)c2C1
[1]
  IC50: < 0.15 µM

## O=S(=O)(Nc1c(S(=O)(=O)c2ccccc2)c2nc3ccccc3nc2n1C1CCCCC1)c1ccccc1
[1]
  IC50: < 0.15 µM

## CCn1cc(C(=O)O)c(=O)c2cc(F)c(N3CCN(C(=S)Nc4ccc(Cl)cc4)CC3)cc21
[2]
  inhibition: -15% (inactive)

## COc1ccc(NC(=S)NCc2ccc(Cl)cc2)cc1
[2]
  inhibition: 1.77% (inactive)

## O=c1c2ccccc2[nH]c2ccc(F)cc12
[1]
  IC50: < 0.15 µM

## O=C(Nc1ccccc1)N1CCCN(Cc2ccc(F)cc2)C1
[2]
  inhibition: -3.43% (inactive)

## CCn1cc(C(=O)O)c(=O)c2cc(F)c(N3CCN(C(=S)NC(=O)c4ccccc4Cl)CC3)cc21
[1]
  IC50: 42.6 µM

## CCn1cc(C(=O)O)c(=O)c2cc(F)c(N3CCN(C(=S)NC)CC3)cc21
[2]
  inhibition: -22.9% (inactive)

## COc1cccc(C2Sc3ccccc3NC3=C2C(=O)c2ccccc23)c1 (stereo unspecified)
[1]
  IC50: 76.8 µM

## O=C1C2=C(Nc3ccccc3SC2c2ccccc2Cl)c2ccccc21 (stereo unspecified)
[1]
  IC50: 141 µM

## COc1c(N2CCN(C(=S)NCc3ccccc3)C(C)C2)c(F)cc2c(=O)c(C(=O)O)cn(C3CC3)c12 (stereo unspecified)
[1]
  IC50: 85.5 µM

## CCCCCNC(=O)c1cn(CC)c2cc(N3CCN(C)CC3)c(F)cc2c1=O
[1]
  IC50: < 0.15 µM

## O=C1C2=C(Nc3ccccc3SC2c2ccc(I)cc2)c2ccccc21 (stereo unspecified)
[1]
  IC50: 133 µM

## O=C(Nc1ccc(Cl)cc1)N1CCCN(Cc2ccc(F)cc2)C1
[2]
  inhibition: -86.3% (inactive)

## S=C(NCc1ccc(Cl)cc1)Nc1ccc(Br)cc1
[2]
  inhibition: -3.88% (inactive)

## S=C(NCc1ccc(Cl)cc1)Nc1cccnc1
[2]
  inhibition: -84.8% (inactive)

## O=C1C2=C(Nc3ccccc3SC2c2ccsc2)c2ccccc21 (stereo unspecified)
[2]
  inhibition: 7.75% (inactive)

## O=C(O)c1cn(-c2ccc(F)cc2)c2cc(Cl)c(F)cc2c1=O
[1]
  IC50: < 0.15 µM

## CCn1cc(C(=O)O)c(=O)c2cc(F)c(N3CCN(C(=S)Nc4ccccc4C)CC3)cc21
[1]
  IC50: 27.9 µM

## Cc1ccc(CN2CCCN(C(=O)Nc3ccc(Cl)cc3)C2)cc1
[2]
  inhibition: 17.3% (inactive)

## O=C(Nc1ccc(Br)cc1)N1CCCN(Cc2ccccc2F)C1
[2]
  inhibition: -62.1% (inactive)

## O=C1C2=C(Nc3ccccc3SC2c2ccc(C(F)(F)F)cc2)c2ccccc21 (stereo unspecified)
[2]
  inhibition: -14.5% (inactive)

## COc1ccccc1Nc1nc(NCc2ccco2)c2ccccc2n1
[1]
  IC50: < 0.15 µM

## CCCCn1c(NS(=O)(=O)c2ccc(C)cc2)c(S(=O)(=O)c2ccccc2)c2nc3ccccc3nc21
[1]
  IC50: < 0.15 µM

## O=C1C2=C(Nc3ccccc3SC2c2ccccc2C(F)(F)F)c2ccccc21 (stereo unspecified)
[2]
  inhibition: -23.8% (inactive)

## CCCCn1c(NS(=O)(=O)c2ccccc2)c(S(=O)(=O)c2ccc(C)cc2)c2nc3ccccc3nc21
[1]
  IC50: < 0.15 µM

## O=C(Nc1cccnc1)c1cc(Br)c(Br)s1
[1]
  IC50: < 0.15 µM

## CCn1cc(C(=O)O)c(=O)c2cc(F)c(N3CCN(C(=S)Nc4ccccc4C(F)(F)F)CC3)cc21
[1]
  IC50: 3.79 µM

## COc1ccccc1NC(=O)N1CCCN(Cc2ccccc2F)C1
[2]
  inhibition: 13.8% (inactive)

## Cc1ccc(NC(=S)NCc2ccc(Cl)cc2)cc1
[2]
  inhibition: 26.1% (inactive)

## CCn1cc(C(=O)O)c(=O)c2cc(F)c(N3CCN(C(=S)NCc4ccccc4)CC3)cc21
[2]
  inhibition: -0.39% (inactive)

## CCn1cc(C(=O)O)c(=O)c2cc(F)c(N3CCN(C(=S)Nc4ccccc4Cl)CC3)cc21
[1]
  IC50: 46.5 µM

## Cc1ccc(Nc2cc(C)c3c(O)cccc3n2)cc1C
[1]
  IC50: 112 µM

## S=C(NCc1ccc(Cl)cc1)Nc1cccc(Cl)c1
[1]
  IC50: 58.8 µM

## O=C1c2ccccc2C2=Nc3ccccc3SC(c3ccccc3F)C12 (stereo unspecified)
[1]
  IC50: < 0.15 µM

## O=[N+]([O-])c1ccc(CNC2CCCc3ccccc32)cc1 (stereo unspecified)
[1]
  IC50: 69.1 µM

## S=C(NCc1ccc(Cl)cc1)Nc1ccncc1
[1]
  IC50: 76.6 µM

## O=C(Nc1ccccc1)N1CCCN(Cc2ccccc2F)C1
[2]
  inhibition: -140% (inactive)

## COc1cccc(NC(=S)NCc2ccc(Cl)cc2)c1
[2]
  inhibition: 2.44% (inactive)

## CN(C)CCCN(C(=O)CCc1ccccc1)c1nc2ccc(Cl)cc2s1
[1]
  IC50: < 0.15 µM
